Source: patent US20240109925A1, “Enhanced Anti-Proliferative and Antitumor Immune Effects of Mitochondria-Targeted Hydroxyurea” (The Medical College of Wisconsin, Inc., priority 2021, published 2024)
Like-named read-outs stand apart in the source and are kept apart here.

Columns and labels:
Format in all cases: cell-based, mouse
[1] = tested on: M-MDSC; assay: In vitro differentiation of MDSCs from bone marrow cells, flow cytometry; settings: for IC50: Mus musculus, Bone marrow cell
From the text: (§1) FIG. 5. In vitro differentiation of MDSCs and suppressive neutrophils in the presence of different concentrations of Mito14-HU and Mito-HUs with varying hydrophobicities (A) Scheme of differentiation of MDSCs. (B) Representative flow cytometry contour plots of in vitro differentiation of MDSCs under varying concentrations of Mito14-HU using FlowJo Software (FlowJo Software, 2019). (C) Summary data depicting distribution of MDSCs after three days treatment with Mito14-HU generated from panel (B). (D and E) (D) Dose-dependent effects of Mito-HUs with different side chain lengths on M-MDSC and (E) suppressive neutrophils. Dashed lines represent the fitting curves used for determination of the IC50 values. Data shown are the means & SD.
(§2) MDSCs were generated from bone marrow cells isolated from C57b1/6 mice and cultured at a density of 1 3 10^6 cells/ml in RPMI with 10% fetal bovine serum and 25 ng/ml recombinant mouse GM-CSF (Shenandoah Biotechnology, Inc.) and 25 ng/ml recombinant mouse IL-6 (Shenandoah Biotechnology, Inc.) for three days. Then, cells were re-cultured in fresh media with inhibitors for an additional three days. Cells were scraped and examined by flow cytometry using the following markers: FITC-anti Ly6C (Biolegend, San Diego, CA), PE-Cy7 anti F4/80 (Biolegend), APC-Cy7 anti Ly6G (Biolegend), and Pacific Blue anti-CD11b (Biolegend). A gating strategy similar to that employed for the T cells was used in all MDSC differentiation assays, which were tested only on live cells after treatments. Flow cytometry data were acquired using a BD Celesta flow cytometer (BD Biosciences), and data were analyzed using FlowJo software (Treestar, Inc.).

[2] = tested on: suppressive neutrophils; assay: as above; settings: for IC50: Mus musculus, Neutrophil, 72 h, read-out: IC50 Suppressive Neutrophils (FIG. 6); for effect on suppressive neutrophils: three days
From the text: as §1, §2

[3] = tested on: CD4 T cells; assay: In vitro differentiation of CD4 T cells (Treg / IFNg-YFP Teff), flow cytometry; settings: for Concentration with Maximum Effect on IFN -YFP: tested concentration with maximum effect, six days culture
From the text: FIG. 4. Effects of Mito10-HU on in vitro differentiation of CD4 T cells (A) The gating strategy reflects data from one DMSO control sample. First, the total population of cells was gated (FSC-A vs SSC-A). Then, single cells were gated (SSC-W vs SSC-H). Within the single cell population, we gated on the live CD4 T cells using a fixable LIVE/DEAD stain (CD4 vs DEAD). Within the live CD4 T cells we gated on CD25+FOXP3+Tregs (FOXP3 vs CD25), as well as IFNg-YFP+CD4 T cells (IFNg-YFP vs CD4). (B) Live CD4 T cells were gated within the single cell populations, at varying concentrations of Mito10-HU, along with DMSO controls (B, top row). CD25+FOXP3+Tregs (B, middle row) and IFNg-YFP+CD4 T cells (B, bottom row) were gated within the live CD4 T cell populations, at varying concentrations of Mito10-HU, along with DMSO controls. (C) Effects of Mito10-HU on live CD4+T cells within the lymphocyte gate (C, left), the frequency of FOXP3+CD25+cells within the live CD4+T cells (C, middle), and Teff function is shown as the frequency of IFNg-YFP positive cells within the live CD4+T cells (C, right). Data shown are the means & SD, n=2 per treatment group. *p<0.05, **p<0.01 vs control.
To differentiate CD4^+ T cells into a Treg phenotype, splenocytes from SMARTA triple-reporter mice were processed and the red blood cells were lysed using an ACK (ammonium-chloride-potassium) lysis buffer. The cells were then activated with […] GP61-80 peptide (GenScript, Piscataway, NJ) and 5 ng/mL TGF-b1 (Shenandoah Biotechnology, Inc., Warwick, PA). After one day of initial skewing, […] IL-2 along with HU or Mito-HUs (n=4-20) of varying concentrations were added to the culture. Cells were cultured for six days and split once cells reached confluency; cells were replenished with IL-2 and compound (i.e., MitoHUs) accordingly. After six days in culture, cells were stained to assess the viability and phenotypic analysis via flow cytometry. LIVE/DEAD fixable violet or aqua dead cell stain (Invitrogen) was used to assess cell viability. Only live cells were gated out for further functional analysis by using a fixable LIVE/DEAD stain. First, total population of cells was gated (FSC-A vs SSC-A). Then, single cells were gated (SSC-W vs SSC-H). Within the single cell population, we gated on the live CD4 T cells using a fixable Live/Dead stain (CD4 vs DEAD). Within the live CD4 T cells, we gated on CD25^+FOXP3^+ Tregs (FOXP3 vs CD25), as well as IFNg-YFP^+ CD4 T cells (IFNg-YFP vs CD4).
The following antibodies were used for flow cytometry staining: APC-Cy7 anti-mouse CD4 (clone: GK1.5; BioLegend, San Diego, CA), APC anti-mouse CD25 (clone: PC61; BioLegend), and PE anti-mouse FOXP3 (clone: FJK-165; eBioscience, San Diego, CA). Flow cytometry data were acquired using a BD Celesta flow cytometer (BD Biosciences, San Jose, CA) flow cytometer and analyzed using FlowJo (Treestar, Inc., Ashland, OR) (FlowJo Software, 2019).

[4] = 72 h, read-out: IC50 M-MDSC (FIG. 6)
[5] = read-out: IC50 frequency of M-MDSCs

Row | SMILES | IC50 [1, 4] | IC50 [1, 5] | IC50 [2] | Concentration with Maximum Effect on IFN -YFP [3] | effect on M-MDSC ([1]; three days) | effect on suppressive neutrophils [2] | FOXP3+ Treg differentiation ([3]; six days) | Teff IFNg production ([3]; six days) | IC50 ([1]; 72 h, mean ± SD, three days treatment, read-out: IC50 M-MDSC (FIG. 6)) | IC50 ([2]; mean ± SD, three days treatment) | lowest concentration with maximal effect on Teff activation ([3]; IFNg-YFP)
1 | NC(=O)NOCCCCCCCCCCCC[P+](c1ccccc1)(c1ccccc1)c1ccccc1.O=C([O-])C(F)(F)F [Mito12-HU, 12-[(carbamoylamino)oxy]-dodecyltriphenylphosphonium trifluoroacetate] | 2600 ± 110 nM | 2600 nM | > 4000 nM | 10 µM | – | – | – | – | – | – | –
2 | NC(=O)NOCCCCCCCCCCCCCC[P+](c1ccccc1)(c1ccccc1)c1ccccc1.O=C([O-])C(F)(F)F [Mito14-HU, 14-[(carbamoylamino)oxy]-tetradecyltriphenylphosphonium trifluoroacetate] | 890 ± 100 nM | 890 nM | 940 ± 990 nM | 1.5 µM | dose-dependently inhibited | dose-dependently inhibited | – | – | – | – | –
3 | NC(=O)NOCCCCCCCCCC[P+](c1ccccc1)(c1ccccc1)c1ccccc1.O=C([O-])C(F)(F)F [Mito10-HU, 10-[(carbamoylamino)oxy]-decyltriphenylphosphonium trifluoroacetate] | 9600 ± 390 nM | 9600 nM | > 20000 nM | 12.5 µM | – | – | inhibited FOXP3^+ Treg differentiation and/or survival | promoted Teff IFNg production | – | – | –
4 | NC(=O)NO [HU, Hydroxyurea] | – | – | – | 200 µM | – | – | – | – | 84000 ± 2800 nM | 18000 ± 1900 nM | –
5 | NC(=O)NOCCCCCCCCCCCCCCCCCCCC[P+](c1ccccc1)(c1ccccc1)c1ccccc1.O=C([O-])C(F)(F)F [Mito20-HU, 20-[(carbamoylamino)oxy]-eicosanyltriphenylphosphonium trifluoroacetate] | 440 ± 90 nM | 440 nM | > 1000 nM | 0.3 µM | – | – | – | – | – | – | 0.3 mM
6 | NC(=O)NOCCCCCCCCCCCCCCCC[P+](c1ccccc1)(c1ccccc1)c1ccccc1.O=C([O-])C(F)(F)F [Mito16-HU, 16-[(carbamoylamino)oxy]-hexadecyltriphenylphosphonium trifluoroacetate] | 440 ± 110 nM | 440 nM | 560 ± 120 nM | 0.4 µM | – | greater inhibitory effects | – | – | – | – | –
